Test results as given in patent US20240293551A1, “USE OF ST-TYPE LIPID COMPOUNDS IN PREPARATION OF NUCLEIC ACID DELIVERY REAGENT AND RELATED PRODUCT” (INSTITUTE OF BASIC MEDICAL SCIENCES CHINESE ACADEMY OF …, priority 2021, published 2024).

System: PGY-sRNA-26
Assay: In vivo delivery study of lipid-nucleic acid mixture (oral gavage, RT-qPCR of PGY-sRNA-26 in tissues)
Design: species or system mouse
Details: C57BL/6 mice, gavage, 100 μg lipid: 10 nmol PGY-sRNA-26, 12 hours; for delivery efficacy over each tissue and blood tested (broad-spectrum delivery): all tissues and blood tested; for oral delivery of single-stranded sRNA nucleic acids into mouse intestinal tissue: intestine
Description: 10 nmol of small RNA (as shown in Table 2) was dissolved in 400 μl of DEPC-treated water in a glass tube, 10 μl of the corresponding lipid stock solution was added such that the lipid mass in the system was 100 μg. The mixture was mixed thoroughly, heated in a 90° C. water bath for 15 minutes, and then cooled naturally to obtain the lipid nucleic acid mixture of lipid and small RNA.
C57BL/6 male mice, approximately 6 weeks old, weighing 20-24 g, were obtained from Beijing Vital River Laboratory Animal Technology Co., Ltd. The mice were housed in the SPF-grade animal facility at the Animal Center of the Institute of Basic Medical Sciences, Chinese Academy of Medical Sciences. The mice were fasted for 12 hours before gavage administration.
The resultant lipid nucleic acid mixture was orally administered to each mouse at a dose of 100 μg lipid: 10 nmol single-stranded 3′-methylated small RNA PGY-sRNA-26.
• 1) Blank group (n=4): mice were administered with 500 μl saline by gavage, this group served as a blank control; • 2) Free uptake group (n=4): mice were directly administered with small RNA PGY-sRNA-26 solution (10 nmol/mouse, 500 μl) by gavage, this group served as a negative control; • 3) Lipid-treated group (n=4): mice were administered with 500 μl lipid nucleic acid mixture prepared in step 2 by gavage.
After 12 hours of gavage administration, 500 μl blood from the eyeball of each mouse was sampled, added to 1.5 ml Trizol Reagent LS (purchased from Invitrogen), thoroughly mixed for lysis. 3 ml of Trizol Reagent LSwas added to tissue samples and homogenized for complete lysis, wherein the sampled tissues include heart, liver, spleen, lung, kidney, stomach, intestine, brain, blood, femur. RNA was extracted from 1 ml of the blood or the tissue lysate following the steps below: • Centrifuge at 4° C., 12,000 rpm for 5 min, discard the precipitate, transfer Trizol to a new centrifuge tube; • Add chloroform at 200 μL chloroform/mL Trizol, shake well, stand at room temperature for 5 min; • Centrifuge at 4° C., 12,000 rpm for 15 min; • Take the upper aqueous phase to another centrifuge tube, add isopropanol at 0.4 mL isopropanol/mL Trizol, mix well, and stand at low temperature for 10-20 min; • Centrifuge at 4° C., 12,000 rpm for 15 min, discard the supernatant, RNA precipitated at the bottom of the tube; • Add 1 mL of 75% ethanol, gently shake the centrifuge tube, suspend the precipitate; • Centrifuge at 4° C., 12,000 rpm for 15 min, discard the supernatant, add 1 mL of 75% ethanol, gently shake the centrifuge tube, suspend the precipitate; • Centrifuge at 4° C., 12,000 rpm for 15 min, discard the supernatant, air-dry at room temperature, dissolve RNA samples in 50 μL RNase-free H2O, measure OD value to quantify RNA concentration. 3.3 Reverse Transcription of sRNA to cDNA:
The reverse transcription system is as follows: Template RNA (200 ng/μL) 10 μL, 10×RT Buffer 2.0 μL, 25×dNTP Mix (100 mM) 0.8 μL, U6 RT stem-loop primer (10 μM) 2.0 μL, PGY-sRNA-26 RT stem-loop primer (10 μM) 2.0 μL, MultiScribe™ Reverse Transcriptase (50 U/μL) 1.0 μL, RNAse Inhibitor (40 U/μL) 1.0 μL, nuclease-free H2O 1.2 μL. After transient centrifugation, the reverse transcription system was placed in a PCR machine with the following reaction conditions: (1) 25° C., 10 min; (2) 37° C., 120 min; (3) 85° C., 5 min; (4) 4° C., stop reaction. After the reaction, add 20 μL RNAse-free ddH2O, adjust the final volume to 40 μL. The stem-loop primers used in this reverse transcription process were synthesized by Beijing Tianyi Huiyuan Biotechnology Co., Ltd. (U6 was used as a standard reference gene to calculate its relative expression, because U6 RT primer was used as a reference gene in relative quantification of RT-qPCR reactions for small RNA): […]

Row | Compound | delivery efficacy over each tissue and blood tested (broad-spectrum delivery) | oral delivery of single-stranded sRNA nucleic acids into mouse blood | oral delivery of single-stranded sRNA nucleic acids into mouse brain tissue | oral delivery of single-stranded sRNA nucleic acids into mouse femur | oral delivery of single-stranded sRNA nucleic acids into mouse heart tissue | oral delivery of single-stranded sRNA nucleic acids into mouse intestinal tissue | oral delivery of single-stranded sRNA nucleic acids into mouse kidney tissue | oral delivery of single-stranded sRNA nucleic acids into mouse liver tissue | oral delivery of single-stranded sRNA nucleic acids into mouse lung tissue | oral delivery of single-stranded sRNA nucleic acids into mouse spleen tissue | oral delivery of single-stranded sRNA nucleic acids into mouse stomach tissue
1 | C[C@]12CC[C@H](O)C[C@@H]1CC[C@@H]1[C@@H]2CC[C@]2(C)[C@@H](O)CC[C@@H]12 [Lipid 548, 5α-androstanediol (3S,5S,8R,9S,10S,13S,14S,17S)-10,13-dimethyl-2,3,4,5,6,7,8,9,11,12,14,15,16,17-tetradecahydro-1H-cyclopenta[a]phenanthrene-3,17-diol] | exhibited the best delivery efficacy | can effectively orally deliver | can effectively orally deliver | can effectively orally deliver | can effectively orally deliver | can effectively orally deliver | can effectively orally deliver | can effectively orally deliver | can effectively orally deliver | can effectively orally deliver | can effectively orally deliver
2 | C[C@]12CCC(=O)C=C1CC[C@@H]1[C@@H]2CC[C@@]2(C)[C@H]1CC[C@]2(O)C(=O)CO [Lipid 549] | exhibited the best delivery efficacy | can effectively orally deliver | can effectively orally deliver | can effectively orally deliver | can effectively orally deliver | can effectively orally deliver | can effectively orally deliver | can effectively orally deliver | can effectively orally deliver | can effectively orally deliver | can effectively orally deliver
3 | C[C@@H]1O[C@@H](O[C@H]2C[C@@H](O)[C@]3(CO)[C@H]4[C@H](O)C[C@]5(C)[C@@H](C6=CC(=O)OC6)CC[C@]5(O)[C@@H]4CC[C@]3(O)C2)[C@H](O)[C@H](O)[C@H]1O [Lipid 550] | exhibited the best delivery efficacy | can effectively orally deliver | can effectively orally deliver | can effectively orally deliver | can effectively orally deliver | can effectively orally deliver | can effectively orally deliver | can effectively orally deliver | can effectively orally deliver | can effectively orally deliver | can effectively orally deliver
4 | CC(C)CCC[C@@H](C)[C@H]1CC[C@H]2[C@@H]3C[C@@H](O)[C@@]4(O)C[C@@H](O)CC[C@]4(C)[C@H]3CC[C@]12C [Lipid 551, Cholestan-3,5,6-triol (3S,5R,6R,8S,9S,10R,13R,14S,17R)-10,13-dimethyl-17-[(2R)-6-methylheptan-2-yl]-1,2,3,4,6,7,8,9,11,12,14,15,16,17-tetradecahydrocyclopenta[a]phenanthrene-3,5,6-triol] | exhibited the best delivery efficacy | can effectively orally deliver | can effectively orally deliver | can effectively orally deliver | can effectively orally deliver | can effectively orally deliver | can effectively orally deliver | can effectively orally deliver | can effectively orally deliver | can effectively orally deliver | can effectively orally deliver
5 | C[C@H](CCC(=O)NCC(=O)O)[C@H]1CC[C@H]2[C@@H]3CC[C@@H]4C[C@H](O)CC[C@]4(C)[C@H]3C[C@H](O)[C@]12C [Lipid 552] | exhibited the best delivery efficacy | can effectively orally deliver | can effectively orally deliver | can effectively orally deliver | can effectively orally deliver | can effectively orally deliver | can effectively orally deliver | can effectively orally deliver | can effectively orally deliver | can effectively orally deliver | can effectively orally deliver
6 | C[C@H](CCC(=O)NCC(=O)O)[C@H]1CC[C@H]2[C@@H]3[C@H](O)C[C@@H]4C[C@H](O)CC[C@]4(C)[C@H]3C[C@H](O)[C@]12C [Lipid 553] | exhibited the best delivery efficacy | can effectively orally deliver | can effectively orally deliver | can effectively orally deliver | can effectively orally deliver | can effectively orally deliver | can effectively orally deliver | can effectively orally deliver | can effectively orally deliver | can effectively orally deliver | can effectively orally deliver
